The values that follow are results of earlier work, collected in patent publication US20190135859A1, “METHOD OF MANUFACTURING A PHARMACEUTICAL COMPOSITION” (FERRING B.V., priority 2017, published 2019).

Starred links: 1 amine or outer side, 2 acyl side, 3 side chain; linkers in the order of their positions; H or OH if unused. Positions of bridges follow the written chain, without caps; N, C: chain ends. Residues, ends and D or L forms follow the SMILES beside them. X1 = O=C(CCC[*:2])[*:1]

In data set [1] the test system is human oxytocin (hOT) receptor versus human V2 (hV2) receptor. The note with it: ratio of EC50 values; see Table 2 in WO2009/122285.
For data set [2], the system named is Prader-Willi Syndrome patients. Particulars: after 15 days, versus placebo treated patients, as described in WO2016/044131.

With `CC[C@H](C)[C@@H]1NC(=O)[C@H](Cc2ccc(O)cc2)NC(=O)[C@@H](N)CSSC[C@@H](C(=O)N2CCC[C@H]2C(=O)N[C@@H](CC(C)C)C(=O)NCC(N)=O)NC(=O)[C@H](CC(N)=O)NC(=O)[C@H](CCC(N)=O)NC1=O` [Oxytocin, oxytocin], the “hV2/hOT selectivity ratio (EC50 hV2/EC50 hOT)” value in data set [1] is 3.

For `CC[C@H](C)[C@@H]1NC(=O)[C@H](Cc2ccc(OC)cc2)NC(=O)CCCSC[C@@H](C(=O)N2CCC[C@H]2C(=O)N[C@@H](CC(C)C)C(=O)NCC(N)=O)NC(=O)[C@H](CC(N)=O)NC(=O)[C@H](CCC(N)=O)NC1=O` [carbetocin, (1-desamino-1-monocarba-2(O-methyl)-tyrosine)oxytocin] (Y(Me)IQNCPLG-NH2; linker N-5 via X1), in data set [2], the “improvement over placebo in measurements of hyperphagia, obsessive compulsive disorder, food seeking behaviour and clinical global impression” value is “statistically significant improvement”. The “hV2/hOT selectivity ratio (EC50 hV2/EC50 hOT)” value in data set [1] is recorded as 244.
